≈ marks a conversion by molar mass, not a printed value.

For series [1], the system named is Mycobacterium tuberculosis. Briefly: Antimycobacterial activity against Mycobacterium tuberculosis H37Rv. Conditions: Mycobacterium tuberculosis, H37Rv. Type of series: functional.
Series [2] can be described thus: Inhibition of Mycobacterium tuberculosis IMPDH.
For series [3], the system named is Mycobacterium tuberculosis. Nature of the series: Antimycobacterial activity against Mycobacterium tuberculosis H37Rv in logarithmic phase. Type of series: functional.
For series [4], the system named is Mycobacterium tuberculosis. Briefly: Antimycobacterial activity against Mycobacterium tuberculosis H37Rv in hypoxia-induced latent phase. Type of series: functional.
In series [5] the test system is Mycobacterium tuberculosis. Nature of the series: Antimycobacterial activity against non-replicating Mycobacterium tuberculosis. Type of series: functional.
The test system of series [6] is Mycobacterium tuberculosis. Briefly: Growth inhibition of Mycobacterium tuberculosis H37Rv at 100 ug/ml relative to control. Type of series: functional. Conditions: read-out: GI.
Series [7] deals with Mycobacterium tuberculosis. Briefly: Antimycobacterial activity against Mycobacterium tuberculosis H37Rv ATCC 27294 by MABA. Type of series: functional. (In general: Resazurin is reduced to fluorescent resorufin, in cell work by metabolically active cells.)
Series [8] is described as follows: Selectivity index, ratio of IC50 for African green monkey Vero cells to MIC for Mycobacterium tuberculosis H37Rv ATCC 27294. Type of series: toxicity. Particulars: read-out: Selectivity Index.
Series [9] relates to Mycobacterium tuberculosis. Nature of the series: Antimycobacterial activity against Mycobacterium tuberculosis. Type of series: functional.
In series [10] the test system is Mycobacterium tuberculosis. Nature of the series: Potency index, ratio of isoniazid MIC to compound MIC for Mycobacterium tuberculosis H37Rv. Type of series: functional.
Series [11] deals with Mycobacterium tuberculosis. Briefly: Potency index, ratio of ciprofloxacin MIC to compound MIC for Mycobacterium tuberculosis H37Rv. Type of series: functional.
Series [12] has as its system Mycobacterium tuberculosis. Briefly: Antimycobacterial activity against Mycobacterium tuberculosis H37Rv after 5 days by MABA. Type of series: functional. Particulars: 120 h.
Another series has as its system HEK293. Briefly: Cytotoxicity against HEK293 cells after 24 hrs by MTT assay. Type of series: cell-based. Conditions: Homo sapiens, HEK293, 24 h.
Series [13] relates to Mycobacterium tuberculosis. Briefly: Potency index, ratio of pyrazinamide MIC to compound MIC for Mycobacterium tuberculosis H37Rv. Type of series: functional.
Series [14] concerns Mycobacterium tuberculosis. Briefly: Potency index, ratio of streptomycin MIC to compound MIC for Mycobacterium tuberculosis H37Rv. Type of series: functional.

For orientation: MIC means the smallest concentration in the dilution series that meets the test's criterion for growth inhibition. In the case of `CC1(C)CCc2c(c3ccccc3c3nc(-c4c[nH]c5ccccc45)[nH]c23)O1`, in series [1], the MIC fell in the range of 1.56 to 6.25 µg/mL (≈ 4.25 to 17 µM).
What is called IC50 is the concentration needed to halve the response being measured. For `O=C(Cn1c(-c2cscn2)nc2ccccc21)Nc1ccc(F)cc1`, the IC50 in series [2] was in the range of 3000 to 10000 nM.
Consider `N#Cc1ccc(NC(=O)Cn2c(-c3cscn3)nc3ccccc32)cc1`, for which the IC50 in series [2] is 3000 to 10000 nM.
`O=C(Cn1c(-c2cscn2)nc2ccccc21)Nc1ccc(Br)cc1`: in series [2], half-maximal inhibition (IC50) required 3000 nM.
The same measure, in the same setting: under `O=C(Cn1c(-c2cscn2)nc2ccccc21)Nc1cccc(Cl)c1` stands 3000 to 10000 nM.
On to `COc1ccc(-c2cn(Cc3ccc(Cl)cc3Cl)cc2C(c2ccccc2)n2ccnc2)cc1` (stereo not drawn), for which the MIC in series [1] came out at 1 µg/mL (≈ 2.05 µM).
In the case of `O=C(Cn1c(-c2cscn2)nc2ccccc21)Nc1ccc(Cl)cc1`, the IC50 in series [2] lay in the range of 3000 to 10000 nM.
As for `Clc1ccc(Cn2cc(-c3ccccc3)c(C(c3ccccc3)n3ccnc3)c2)c(Cl)c1` (stereo not drawn), the MIC in series [1] is 1 to 16 µg/mL (≈ 2.18 to 34.9 µM).
With `COc1ccc(-c2nc3cc(-c4ccc5[nH]c(-c6ccc(OC)cc6)nc5c4)ccc3[nH]2)cc1`, the MIC in series [3] and in series [4] was 0.5 to 16 µg/mL (≈ 1.12 to 35.8 µM) throughout.
Turning to `Oc1ccc(-c2nc3ccc(-c4ccc5nc(-c6ccc(O)cc6)[nH]c5c4)cc3[nH]2)cc1`, the MIC in series [3] and in series [4] was 0.5 to 16 µg/mL (≈ 1.19 to 38.2 µM) in each case.
In turn, `CCc1nc2ccc(C)cc2n1CCCCOc1ccccc1` yielded an MIC in series [5] of 0.056 to 2.6 µM (≈ 0.0173 to 0.802 µg/mL).
On the same count and under the same terms, the figure for `CCc1nc2ccc(C)cc2n1CCCCNc1ccccc1` is 0.056 to 2.6 µM (≈ 0.0172 to 0.799 µg/mL).
As to `COc1cccc(-c2nc3ccc(-c4ccc5nc(-c6cccc(OC)c6)[nH]c5c4)cc3[nH]2)c1`, the MIC in series [3] and in series [4] was 0.5 to 16 µg/mL (≈ 1.12 to 35.8 µM) each time.
In turn, `CCc1nc2ccc(C)cc2n1CCCCNc1ccc(OCc2ccccc2)cc1` had an MIC in [5] of 0.056 to 2.6 µM (≈ 0.0232 to 1.08 µg/mL).
As to `COc1ccc2c(c1)cc(-c1nc(-c3ccccc3)c(-c3ccccc3)n1-c1ccc(C)cc1)c1nnnn12`, the inhibition of growth at 100 µg/mL in series [6] lay within 17 to 99%.
Take `Cc1ccccc1NC(=O)Cn1c(-c2cscn2)nc2ccccc21`: in [2], the IC50 lay within 3000 to 10000 nM.
`CCCSc1nnc(-c2ncc([N+](=O)[O-])[nH]2)s1`: the MIC in series [7] lay within 3.13 to 6.25 µg/mL (≈ 11.5 to 23 µM). In addition, the selectivity ratio in [8] fell in the range of 0.3 to 0.6.
For the compound `COc1ccc(-n2c(-c3cc4cc(Cl)ccc4n4nnnc34)nc(-c3ccccc3)c2-c2ccccc2)cc1`, the inhibition of growth at 100 µg/mL in series [6] lay in the range of 17 to 99%.
Still for that read-out and setting: the figure for `Clc1ccc2c(c1)cc(-c1nc(-c3ccccc3)c(-c3ccccc3)n1-c1ccccc1)c1nnnn12` is 17 to 99%.
Compound `CCCS(=O)(=O)c1nnc(-c2ncc([N+](=O)[O-])[nH]2)s1` returned an MIC in series [7] of more than 6.25 µg/mL. Besides, the selectivity ratio in series [8] fell in the range of 0.3 to 0.6.
Regarding `O=C1/C(=C\c2ccccc2)SC(c2ccc(-n3ccnc3)cc2)N1Nc1ccccc1` (stereo not drawn), in series [9], the MIC was 14.3 to 49.7 µM (≈ 6.06 to 21.1 µg/mL).
As to `Cc1ccc(Oc2cc3[nH]c(Cn4ccnc4)nc3cc2F)cc1`, the MIC in [1] lay within 12.5 to 100 µg/mL (≈ 38.8 to 310 µM).
With `Cn1c(-c2cccc(Cl)c2Cl)nc2cc(-c3nc(-c4ccc(Cl)cc4)no3)ccc21`, the Ratio worked out at 4 in series [10], 2 in series [11], 2 in [13] and 4 in series [14]. For the same compound, the minimal inhibitory concentration (MIC) in series [12] is 1.6 to 25 µg/mL (≈ 3.51 to 54.9 µM). The same compound returned an IC50 in the series with HEK293 of more than 500 µg/mL.
In series [9], `O=C1/C(=C\c2ccc(Cl)cc2)SC(c2ccc(-n3ccnc3)cc2)N1Nc1ccccc1` (stereo not drawn) yielded an MIC of 14.3 to 49.7 µM (≈ 6.55 to 22.8 µg/mL).
Consider `Cn1c(-c2cccc(Cl)c2F)nc2cc(-c3nc(Cc4cccc(Cl)c4)no3)ccc21`, for which the Ratio is listed as 4 in series [10], 2 in series [11], 2 in [13] and 4 in [14]. In series [12], the MIC is 1.6 to 25 µg/mL (≈ 3.53 to 55.2 µM). Besides, the IC50 in the series on HEK293 was more than 500 µg/mL.
Regarding `c1ccc(-c2nc(-c3cc4ccccc4n4nnnc34)n(-c3ccccc3)c2-c2ccccc2)cc1`, the inhibition of growth at 100 µg/mL in series [6] lay within 17 to 99%.
The MIC99 is an inhibitory concentration at the 99% level, which refers to growth in some studies and to a panel of isolates in others. In series [1], `Cc1ccc(-n2c(-c3cc4cc(Cl)ccc4n4nnnc34)nc(-c3ccccc3)c2-c2ccccc2)cc1` displayed an MIC99 of 25 µg/mL (≈ 48.7 µM). Also, the inhibition of growth at 100 µg/mL in series [6] fell in the range of 17 to 99%.
`Cc1ccc(-n2c(-c3cc4ccccc4n4nnnc34)nc(-c3ccccc3)c2-c2ccccc2)cc1`: in [6], the inhibition of growth at 100 µg/mL was 17 to 99%.
As for `CCc1nc2ccc(C)cc2n1CCCCNc1ccc(OC)cc1`, the MIC in series [5] was 0.056 to 2.6 µM (≈ 0.0189 to 0.877 µg/mL).
In series [5], `CCc1nc2ccc(C)cc2n1CCCCSc1ccc(Cl)cc1` gave an MIC of 0.056 to 2.6 µM (≈ 0.0201 to 0.933 µg/mL).
On to `CCc1nc2ccc(C)cc2n1CCCCNc1cccc(C(F)(F)F)c1`, for which the MIC in series [5] lay within 0.056 to 2.6 µM (≈ 0.021 to 0.976 µg/mL).
Consider `CC[S+]([O-])c1nnc(-c2ncc([N+](=O)[O-])[nH]2)s1` (stereo not drawn), for which it took 1.56 µg/mL (≈ 5.71 µM) to inhibit growth in series [7] (MIC). Further, the selectivity ratio in series [8] is 0.3 to 0.6.
Compound `Fc1ccc(-c2cn(Cc3ccc(Cl)cc3Cl)cc2C(c2ccccc2)n2ccnc2)cc1` (stereo not drawn) showed an MIC in [1] of 1 µg/mL (≈ 2.1 µM).
For `CCSc1nnc(-c2ncc([N+](=O)[O-])[nH]2)s1`, the MIC in [7] was in the range of 3.13 to 6.25 µg/mL (≈ 12.2 to 24.3 µM). Further, in [8], the selectivity ratio lay in the range of 0.3 to 0.6.
For the compound `COc1ccc(-n2c(-c3cc4cc(OC)ccc4n4nnnc34)nc(-c3ccccc3)c2-c2ccccc2)cc1`, in series [6], the inhibition of growth at 100 µg/mL was 17 to 99%.

Values taken from ChEMBL document CHEMBL4196086, “Recent advances of imidazole-containing derivatives as anti-tubercular agents” (Eur J Med Chem, 2018).
